Assay results reported in ChEMBL document CHEMBL1909046, “DrugMatrix in vitro pharmacology data”.

Legend:
[1] = target: Sodium-dependent noradrenaline transporter (Homo sapiens, UniProt P23975); assay: DRUGMATRIX: Norepinephrine Transporter radioligand binding (ligand: [125I] RTI-55); type: cell membranes, MDCK, Membrane; settings: mdck; Not Active = under 50% inhibition at 10 µM
[2] = target: T1, B2 bradykinin receptor (Homo sapiens, UniProt P30411); type: cell membranes, Membrane; settings: chem-1; also: in other assays of this panel Not Active means under 50% inhibition at 10 µM
T1 sequence (P30411 whole entry): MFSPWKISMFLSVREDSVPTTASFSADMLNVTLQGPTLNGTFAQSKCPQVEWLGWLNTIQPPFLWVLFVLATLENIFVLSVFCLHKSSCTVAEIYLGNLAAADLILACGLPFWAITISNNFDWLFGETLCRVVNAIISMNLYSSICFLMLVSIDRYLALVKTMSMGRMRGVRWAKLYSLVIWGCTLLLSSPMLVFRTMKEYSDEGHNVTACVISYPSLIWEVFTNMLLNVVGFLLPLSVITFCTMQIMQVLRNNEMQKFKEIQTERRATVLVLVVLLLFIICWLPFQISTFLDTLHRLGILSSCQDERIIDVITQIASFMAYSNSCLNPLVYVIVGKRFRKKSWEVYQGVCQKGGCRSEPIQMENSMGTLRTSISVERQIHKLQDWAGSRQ

[3] = DRUGMATRIX: Tumor Necrosis Factor (TNF), Non-Selective radioligand binding (ligand: [125I] TNF-alpha); type: cell membranes, Membrane; settings: u-937; Not Active = under 50% inhibition at 10 µM
[4] = target: T2, Caspase-1 (Homo sapiens, UniProt P29466); parameters: species or system Escherichia coli;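 also: Caspase-1 enzyme inhibition assay with a peptide substrate; in other assays of this panel Not Active means under 50% inhibition at 10 µM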
T2 sequence (P29466 whole entry): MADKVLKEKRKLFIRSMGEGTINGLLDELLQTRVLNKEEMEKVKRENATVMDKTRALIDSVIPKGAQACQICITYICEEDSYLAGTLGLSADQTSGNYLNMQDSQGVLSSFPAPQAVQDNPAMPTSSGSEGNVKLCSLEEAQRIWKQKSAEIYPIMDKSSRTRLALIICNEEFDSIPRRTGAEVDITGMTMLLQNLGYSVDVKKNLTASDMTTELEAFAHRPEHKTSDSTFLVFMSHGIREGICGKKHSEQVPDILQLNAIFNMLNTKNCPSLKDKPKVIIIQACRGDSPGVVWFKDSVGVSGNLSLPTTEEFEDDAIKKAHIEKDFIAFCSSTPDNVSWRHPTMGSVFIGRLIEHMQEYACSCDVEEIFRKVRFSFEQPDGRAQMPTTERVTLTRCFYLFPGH

[5] = target: T3, Muscarinic acetylcholine receptor M2 (Homo sapiens, UniProt P08172); type: cell membranes, CHO-K1, Membrane; settings: cho-k1; also: in other assays of this panel Not Active means under 50% inhibition at 10 µM
T3 sequence (P08172 whole entry): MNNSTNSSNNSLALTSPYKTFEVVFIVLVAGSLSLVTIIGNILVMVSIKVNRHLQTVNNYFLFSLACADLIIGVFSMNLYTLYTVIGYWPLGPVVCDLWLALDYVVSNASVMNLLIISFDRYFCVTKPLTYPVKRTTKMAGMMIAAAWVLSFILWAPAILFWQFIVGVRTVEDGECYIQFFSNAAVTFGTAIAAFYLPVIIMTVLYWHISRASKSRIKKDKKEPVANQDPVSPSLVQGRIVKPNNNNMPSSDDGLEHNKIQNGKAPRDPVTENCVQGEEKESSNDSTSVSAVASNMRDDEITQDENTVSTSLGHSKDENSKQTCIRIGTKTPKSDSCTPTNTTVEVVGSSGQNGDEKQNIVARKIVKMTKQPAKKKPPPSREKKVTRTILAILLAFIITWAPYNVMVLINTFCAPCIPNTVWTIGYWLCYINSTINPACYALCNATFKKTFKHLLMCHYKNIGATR

[6] = target: T4, 5-hydroxytryptamine receptor 1A (Rattus norvegicus, UniProt P19327); type: cell membranes, Membrane; settings: cho-k1; also: in other assays of this panel Not Active means under 50% inhibition at 10 µM
T4 sequence (P19327 whole entry): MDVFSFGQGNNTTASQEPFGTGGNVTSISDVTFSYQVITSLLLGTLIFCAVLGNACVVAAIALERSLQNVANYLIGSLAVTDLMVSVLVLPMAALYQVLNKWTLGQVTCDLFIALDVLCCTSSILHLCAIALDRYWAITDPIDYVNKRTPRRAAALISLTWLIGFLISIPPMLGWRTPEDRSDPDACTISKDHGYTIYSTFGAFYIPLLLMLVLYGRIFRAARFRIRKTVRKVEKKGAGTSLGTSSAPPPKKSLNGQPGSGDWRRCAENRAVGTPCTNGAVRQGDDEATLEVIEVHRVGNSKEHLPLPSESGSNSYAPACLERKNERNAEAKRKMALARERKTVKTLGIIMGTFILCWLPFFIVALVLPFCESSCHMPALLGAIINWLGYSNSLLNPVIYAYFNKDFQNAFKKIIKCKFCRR

[7] = target: T5, Interstitial collagenase (Homo sapiens, UniProt P03956); assay: biochemical; type: tissue-based, Rheumatoid synovial fibroblasts
T5 sequence (P03956 whole entry): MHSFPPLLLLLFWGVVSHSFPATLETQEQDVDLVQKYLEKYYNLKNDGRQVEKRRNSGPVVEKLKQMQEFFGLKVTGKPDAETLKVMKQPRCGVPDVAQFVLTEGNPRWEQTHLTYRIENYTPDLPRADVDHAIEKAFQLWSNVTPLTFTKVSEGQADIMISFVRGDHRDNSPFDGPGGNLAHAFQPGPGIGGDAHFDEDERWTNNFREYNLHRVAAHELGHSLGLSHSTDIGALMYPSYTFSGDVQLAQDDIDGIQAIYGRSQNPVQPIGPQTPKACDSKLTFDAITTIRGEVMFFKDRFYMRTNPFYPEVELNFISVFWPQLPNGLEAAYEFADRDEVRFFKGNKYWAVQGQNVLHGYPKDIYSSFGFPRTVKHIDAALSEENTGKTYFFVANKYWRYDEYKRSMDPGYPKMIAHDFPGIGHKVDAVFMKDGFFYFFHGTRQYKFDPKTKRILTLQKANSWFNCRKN

[8] = target: Cytochrome P450 3A4 (Homo sapiens, UniProt P08684); settings: bti-tn-5b1-4; also: in other assays of this panel Not Active means under 50% inhibition at 10 µM
Chain of Cytochrome P450 3A4 (P08684 whole entry): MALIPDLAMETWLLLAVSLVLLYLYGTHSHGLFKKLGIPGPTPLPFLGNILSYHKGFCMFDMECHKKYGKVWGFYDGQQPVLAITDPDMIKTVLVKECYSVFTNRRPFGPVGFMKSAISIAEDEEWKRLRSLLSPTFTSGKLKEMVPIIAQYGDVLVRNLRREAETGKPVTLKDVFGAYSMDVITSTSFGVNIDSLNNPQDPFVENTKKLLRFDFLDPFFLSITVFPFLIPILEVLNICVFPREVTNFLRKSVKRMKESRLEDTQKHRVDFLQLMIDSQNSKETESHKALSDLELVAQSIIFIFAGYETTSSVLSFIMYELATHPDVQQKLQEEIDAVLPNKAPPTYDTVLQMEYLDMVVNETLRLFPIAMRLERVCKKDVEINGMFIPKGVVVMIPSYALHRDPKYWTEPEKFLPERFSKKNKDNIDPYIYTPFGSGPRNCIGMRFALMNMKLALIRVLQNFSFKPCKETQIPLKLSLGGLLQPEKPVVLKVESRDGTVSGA

[9] = target: T6, Adenosine receptor A1 (Homo sapiens, UniProt P30542); type: cell membranes, Membrane; settings: cho
T6 sequence (P30542 whole entry): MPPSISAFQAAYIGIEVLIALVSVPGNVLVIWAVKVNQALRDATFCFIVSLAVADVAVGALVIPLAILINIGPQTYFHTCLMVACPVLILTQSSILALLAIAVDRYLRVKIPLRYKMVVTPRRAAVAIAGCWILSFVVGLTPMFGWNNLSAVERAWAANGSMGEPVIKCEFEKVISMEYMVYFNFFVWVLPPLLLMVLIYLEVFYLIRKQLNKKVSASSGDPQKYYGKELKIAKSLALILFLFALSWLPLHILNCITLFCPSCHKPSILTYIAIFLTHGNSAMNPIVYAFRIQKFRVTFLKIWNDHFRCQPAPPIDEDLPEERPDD

[10] = target: Cytochrome P450 2C19 (Homo sapiens, UniProt P33261); settings: bti-tn-5b1-4; also: in other assays of this panel Not Active means under 50% inhibition at 10 µM
Chain of Cytochrome P450 2C19 (P33261 whole entry): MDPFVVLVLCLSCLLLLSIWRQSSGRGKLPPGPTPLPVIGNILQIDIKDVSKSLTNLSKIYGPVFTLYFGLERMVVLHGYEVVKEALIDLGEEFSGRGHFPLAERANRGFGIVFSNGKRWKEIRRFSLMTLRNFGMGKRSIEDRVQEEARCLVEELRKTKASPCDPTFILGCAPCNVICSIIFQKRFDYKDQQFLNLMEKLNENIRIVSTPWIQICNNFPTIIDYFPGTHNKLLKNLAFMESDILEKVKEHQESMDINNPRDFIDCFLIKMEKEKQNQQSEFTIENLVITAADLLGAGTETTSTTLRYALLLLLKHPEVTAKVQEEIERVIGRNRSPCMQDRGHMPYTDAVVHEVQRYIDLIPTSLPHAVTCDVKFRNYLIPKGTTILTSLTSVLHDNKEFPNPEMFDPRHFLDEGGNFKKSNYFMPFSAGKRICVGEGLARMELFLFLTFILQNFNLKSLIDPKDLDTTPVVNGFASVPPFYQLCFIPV

Chain of Sodium-dependent noradrenaline transporter (P23975 whole entry): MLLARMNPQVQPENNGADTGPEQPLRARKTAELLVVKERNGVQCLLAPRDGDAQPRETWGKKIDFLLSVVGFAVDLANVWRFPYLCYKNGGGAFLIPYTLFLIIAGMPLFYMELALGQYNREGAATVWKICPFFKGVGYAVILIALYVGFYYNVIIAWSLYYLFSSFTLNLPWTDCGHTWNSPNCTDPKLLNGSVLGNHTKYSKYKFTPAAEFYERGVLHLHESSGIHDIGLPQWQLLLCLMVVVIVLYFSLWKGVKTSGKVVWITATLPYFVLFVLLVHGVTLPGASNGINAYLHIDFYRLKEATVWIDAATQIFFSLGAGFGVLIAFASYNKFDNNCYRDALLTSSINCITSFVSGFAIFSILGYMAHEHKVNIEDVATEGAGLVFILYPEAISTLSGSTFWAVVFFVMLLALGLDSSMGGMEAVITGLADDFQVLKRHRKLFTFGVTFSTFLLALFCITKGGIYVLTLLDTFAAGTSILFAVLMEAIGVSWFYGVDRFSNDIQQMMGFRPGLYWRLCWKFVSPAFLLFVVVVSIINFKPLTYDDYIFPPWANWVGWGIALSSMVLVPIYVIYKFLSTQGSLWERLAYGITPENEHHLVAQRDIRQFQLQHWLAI

CC1=C(CC(=O)O)c2cc(F)ccc2/C1=C\c1ccc([S+](C)[O-])cc1 (centres undefined)
Not Active: IC50 [1] | IC50 [2] | IC50 [3] | Ki [3] | IC50 [4] | IC50 [5] | IC50 [6] | IC50 [7] | IC50 [8] | Ki [8] | IC50 [9] | IC50 [10] | Ki [10]

N[C@H](CSC(=S)NCc1ccccc1)C(=O)O
Not Active: IC50 [1] | IC50 [2] | IC50 [3] | Ki [3] | IC50 [4] | IC50 [5] | IC50 [6] | IC50 [7] | IC50 [8] | Ki [8] | IC50 [9] | IC50 [10] | Ki [10]

CC(=O)N[C@@H]1[C@H](Oc2c3cc4cc2Oc2ccc(cc2Cl)[C@@H](O[C@@H]2O[C@@H](CO)[C@@H](O)[C@H](O)[C@@H]2NC(C)=O)[C@@H]2NC(=O)[C@H](NC(=O)[C@@H]4NC(=O)[C@H]4NC(=O)[C@@H](Cc5ccc(c(Cl)c5)O3)NC(=O)[C@H](N)c3ccc(O)c(c3)Oc3cc(O)cc4c3)c3ccc(O)c(c3)-c3c(O[C@H]4O[C@H](CO)[C@@H](O)[C@@H](O)[C@@H]4O)cc(O)cc3[C@@H](C(=O)O)NC2=O)O[C@@H](CO)[C@@H](O)[C@@H]1O
Not Active: IC50 [1] | IC50 [2] | IC50 [3] | Ki [3] | IC50 [4] | IC50 [5] | IC50 [6] | IC50 [7] | IC50 [8] | Ki [8] | IC50 [9] | IC50 [10] | Ki [10]

COc1cc2c(c(OC)c1OC)-c1ccc(OC)c(=O)cc1[C@@H](NC(C)=O)CC2 [COLCHICINE]
Not Active: IC50 [1] | IC50 [2] | IC50 [4] | IC50 [5] | IC50 [6] | IC50 [7] | IC50 [9] | IC50 [10] | Ki [10]

COCCCOc1ccnc(C[S+]([O-])c2nc3ccccc3[nH]2)c1C (centres undefined) [RABEPRAZOLE]
Not Active: IC50 [1] | IC50 [2] | IC50 [3] | Ki [3] | IC50 [4] | IC50 [5] | IC50 [6] | IC50 [7] | IC50 [8] | Ki [8] | IC50 [9] | IC50 [10] | Ki [10]

CNC(=C[N+](=O)[O-])NCCSCc1ccc(CN(C)C)o1 [RANITIDINE]
Not Active: IC50 [1] | IC50 [2] | IC50 [3] | Ki [3] | IC50 [4] | IC50 [5] | IC50 [6] | IC50 [7] | IC50 [8] | Ki [8] | IC50 [9] | IC50 [10] | Ki [10]

CO[C@H]1/C=C/O[C@@]2(C)Oc3c(C)c(O)c4c(c3C2=O)C2=NC3(CCN(CC(C)C)CC3)NC2=C(NC(=O)/C(C)=C\C=C\[C@H](C)[C@H](O)[C@@H](C)[C@@H](O)[C@@H](C)[C@H](OC(C)=O)[C@@H]1C)C4=O [RIFABUTIN]
Not Active: IC50 [1] | IC50 [2] | IC50 [3] | Ki [3] | IC50 [4] | IC50 [5] | IC50 [6] | IC50 [7] | IC50 [8] | Ki [8] | IC50 [9] | IC50 [10] | Ki [10]

CC[C@]1(O)C[C@@H]2CN(CCc3c([nH]c4ccccc34)[C@@](C(=O)OC)(c3cc4c(cc3OC)N(C)[C@H]3[C@@](O)(C(=O)OC)[C@H](OC(C)=O)[C@]5(CC)C=CCN6CC[C@]43[C@@H]65)C2)C1 [VINBLASTINE]
Not Active: IC50 [1] | IC50 [2] | IC50 [3] | Ki [3] | IC50 [4] | IC50 [5] | IC50 [6] | IC50 [7] | IC50 [8] | Ki [8] | IC50 [9]

C[C@@H](N)[C@H]1CC[C@H](C(=O)Nc2ccncc2)CC1 [Y-27632]
Not Active: IC50 [1] | IC50 [2] | IC50 [3] | Ki [3] | IC50 [4] | IC50 [5] | IC50 [6] | IC50 [7] | IC50 [8] | Ki [8] | IC50 [9]
